Assays:
giant foxtail = experiment: Test B pre/postemergence giant foxtail; type: in vivo, Setaria faberii
Procedure, shortened: (§1)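 Herbicidal effect was estimated by eye on a ten-point control scale after plants spent twelve to sixteen days in a greenhouse following soil or foliar treatment. Foliar sprays targeted plants at one to four leaves; all doses were formulated in a non-phytotoxic solvent with surfactant.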

purple nutsedge = experiment: Test B pre/postemergence purple nutsedge; type: in vivo, Cyperus rotundus
Procedure, shortened: as §1

velvetleaf = experiment: Test B pre/postemergence velvetleaf; type: in vivo, Abutilon theophrasti
Procedure, shortened: as §1

blackgrass = experiment: Test B pre/postemergence blackgrass; type: in vivo, Alopecurus myosuroides
Procedure, shortened: as §1

surinam grass = experiment: Test B pre/postemergence surinam grass; type: in vivo, Brachiaria decumbens
Procedure, shortened: as §1

pigweed = experiment: Test B pre/postemergence pigweed; type: in vivo, Amaranthus retroflexus
Procedure, shortened: as §1

wild oat = experiment: Test B pre/postemergence wild oat; type: in vivo, Avena fatua
Procedure, shortened: as §1

cocklebur = experiment: Test B pre/postemergence cocklebur; type: in vivo, Xanthium strumarium
Procedure, shortened: as §1

morningglory = experiment: Test B pre/postemergence morningglory; type: in vivo, Ipomoea hederacea
Procedure, shortened: as §1

wheat = experiment: Test B pre/postemergence wheat; type: in vivo, Triticum aestivum
Procedure, shortened: as §1

soybean = experiment: Test B pre/postemergence soybean; type: in vivo, Glycine max
Procedure, shortened: as §1

corn = experiment: Test B pre/postemergence corn; type: in vivo, Zea mays
Procedure, shortened: as §1

bedstraw = experiment: Test B pre/postemergence bedstraw; type: in vivo, Galium aparine
Procedure, shortened: as §1

rape = experiment: Test B pre/postemergence rape; type: in vivo, Brassica napus
Procedure, shortened: as §1

crabgrass = experiment: Test B pre/postemergence crabgrass; type: in vivo, Digitaria sanguinalis
Procedure, shortened: as §1

sugar beet = experiment: Test B pre/postemergence sugar beet; type: in vivo, Beta vulgaris
Procedure, shortened: as §1

[1] = Postemergence, Rate 62 g/ha, scale 0 to 10, 0 is no effect, 10 is complete control
[2] = Postemergence, Rate 125 g/ha, scale of 0 to 10 where 0 is no effect and 10 is complete control
[3] = Postemergence, Rate 500 g/ha, scale 0 (no effect) to 10 (complete control)
[4] = Preemergence, Rate 250 g/ha, scale 0 (no effect) to 10 (complete control)
[5] = Rate 62 g/ha, Preemergence, scale 0 to 10
[6] = Rate 125 g/ha, Preemergence, scale 0 to 10 (0 no effect, 10 complete control)
[7] = Rate 250 g/ha, Postemergence, scale 0 to 10, 0 is no effect, 10 is complete control
[8] = Rate 500 g/ha, Preemergence, scale 0 to 10 (0 no effect, 10 complete control)

Question: Which “Plant response rating, Giant foxtail” value (giant foxtail; [1]) does the source give for `CC(C)N(C(=O)n1oc(=O)n(CCCCCl)c1=O)c1ccccc1` [Compound 792] here?
Answer: 2

Question: What about the “Giant foxtail plant response rating” value (giant foxtail; [2]) of the same molecule?
Answer: 9

Question: And the “Giant foxtail plant response rating” value (giant foxtail; [3])?
Answer: 9

Question: What about the “Giant foxtail plant response rating” value (giant foxtail; [4]) of the same molecule?
Answer: 10

Question: What about the “Giant foxtail plant response rating” value (giant foxtail; [5]) of the same molecule?
Answer: 10

Question: What about the “Giant foxtail plant response rating” value (giant foxtail; [6]) of the same molecule?
Answer: 10

Question: What about the “Giant foxtail plant response rating” value (giant foxtail; [7]) of the same molecule?
Answer: 9

Question: What about the “Giant foxtail plant response rating” value (giant foxtail; [8]) of the same molecule?
Answer: 10

Question: What about the “Plant response rating, Nutsedge” value (purple nutsedge; [1]) of the same molecule?
Answer: 0

Question: What about the “Nutsedge plant response rating” value (purple nutsedge; [2]) of the same molecule?
Answer: 0

Question: What about the “Nutsedge plant response rating” value (purple nutsedge; [3]) of the same molecule?
Answer: 0

Question: And the “Nutsedge plant response rating” value (purple nutsedge; [5])?
Answer: 0

Question: What about the “Nutsedge plant response rating” value (purple nutsedge; [6]) of the same molecule?
Answer: 0

Question: What about the “Nutsedge plant response rating” value (purple nutsedge; [7]) of the same molecule?
Answer: 0

Question: And the “Nutsedge plant response rating” value (purple nutsedge; [8])?
Answer: 0

Question: What about the “Plant response rating, Velvetleaf” value (velvetleaf; [1]) of the same molecule?
Answer: 0

Question: And the “Velvetleaf plant response rating” value (velvetleaf; [3])?
Answer: 7

Question: And the “Velvetleaf plant response rating” value (velvetleaf; [5])?
Answer: 0

Question: What about the “Velvetleaf plant response rating” value (velvetleaf; [6]) of the same molecule?
Answer: 3

Question: And the “Velvetleaf plant response rating” value (velvetleaf; [7])?
Answer: 6

Question: And the “Velvetleaf plant response rating” value (velvetleaf; [8])?
Answer: 5

Question: And the “Plant response rating, Blackgrass” value (blackgrass; [1])?
Answer: 4

Question: What about the “Blackgrass plant response rating” value (blackgrass; [2]) of the same molecule?
Answer: 7

Question: And the “Blackgrass plant response rating” value (blackgrass; [3])?
Answer: 7

Question: And the “Blackgrass plant response rating” value (blackgrass; [4])?
Answer: 8

Question: And the “Blackgrass plant response rating” value (blackgrass; [5])?
Answer: 1

Question: And the “Blackgrass plant response rating” value (blackgrass; [6])?
Answer: 4

Question: And the “Plant response rating, B. signalgrass” value (surinam grass; [1])?
Answer: 0

Question: What about the “B. signalgrass plant response rating” value (surinam grass; [2]) of the same molecule?
Answer: 0

Question: What about the “B. signalgrass plant response rating” value (surinam grass; [4]) of the same molecule?
Answer: 9

Question: What about the “B. signalgrass plant response rating” value (surinam grass; Rate 62 g/ha, Preemergence, scale 0 (no effect) to 10 (complete control)) of the same molecule?
Answer: 0

Question: And the “B. signalgrass plant response rating” value (surinam grass; [6])?
Answer: 0

Question: And the “B. signalgrass plant response rating” value (surinam grass; [7])?
Answer: 0

Question: What about the “B. signalgrass plant response rating” value (surinam grass; Rate 500 g/ha, Postemergence, scale 0 to 10, 0 is no effect, 10 is complete control) of the same molecule?
Answer: 2

Question: What about the “Plant response rating, Redroot pigweed” value (pigweed; [1]) of the same molecule?
Answer: 0

Question: And the “Redroot pigweed plant response rating” value (pigweed; [2])?
Answer: 6

Question: And the “Redroot pigweed plant response rating” value (pigweed; [5])?
Answer: 7

Question: What about the “Redroot pigweed plant response rating” value (pigweed; [6]) of the same molecule?
Answer: 9

Question: What about the “Redroot pigweed plant response rating” value (pigweed; [7]) of the same molecule?
Answer: 6

Question: And the “Plant response rating, Wild oats” value (wild oat; [1])?
Answer: 0

Question: And the “Wild oats plant response rating” value (wild oat; [3])?
Answer: 6

Question: What about the “Wild oats plant response rating” value (wild oat; [5]) of the same molecule?
Answer: 0

Question: And the “Wild oats plant response rating” value (wild oat; [6])?
Answer: 0

Question: And the “Wild oats plant response rating” value (wild oat; [7])?
Answer: 2

Question: What about the “Plant response rating, Cocklebur” value (cocklebur; [1]) of the same molecule?
Answer: 0

Question: What about the “Cocklebur plant response rating” value (cocklebur; [2]) of the same molecule?
Answer: 1

Question: And the “Cocklebur plant response rating” value (cocklebur; [3])?
Answer: 3

Question: And the “Cocklebur plant response rating” value (cocklebur; [4])?
Answer: 0

Question: What about the “Cocklebur plant response rating” value (cocklebur; [5]) of the same molecule?
Answer: 0

Question: And the “Cocklebur plant response rating” value (cocklebur; [7])?
Answer: 3

Question: What about the “Cocklebur plant response rating” value (cocklebur; [8]) of the same molecule?
Answer: 0

Question: What about the “Plant response rating, Morningglory” value (morningglory; [1]) of the same molecule?
Answer: 6

Question: What about the “Morningglory plant response rating” value (morningglory; [2]) of the same molecule?
Answer: 7

Question: And the “Morningglory plant response rating” value (morningglory; [3])?
Answer: 10

Question: And the “Morningglory plant response rating” value (morningglory; [5])?
Answer: 0

Question: What about the “Morningglory plant response rating” value (morningglory; [6]) of the same molecule?
Answer: 0

Question: And the “Morningglory plant response rating” value (morningglory; [7])?
Answer: 10

Question: What about the “Morningglory plant response rating” value (morningglory; [8]) of the same molecule?
Answer: 0

Question: What about the “Plant response rating, Wheat” value (wheat; [1]) of the same molecule?
Answer: 0

Question: And the “Wheat plant response rating” value (wheat; [3])?
Answer: 3

Question: What about the “Wheat plant response rating” value (wheat; [5]) of the same molecule?
Answer: 0

Question: What about the “Wheat plant response rating” value (wheat; [6]) of the same molecule?
Answer: 0

Question: And the “Wheat plant response rating” value (wheat; [7])?
Answer: 1

Question: And the “Plant response rating, Soybean” value (soybean; [1])?
Answer: 4

Question: And the “Soybean plant response rating” value (soybean; [3])?
Answer: 7

Question: And the “Soybean plant response rating” value (soybean; [5])?
Answer: 0

Question: What about the “Soybean plant response rating” value (soybean; [6]) of the same molecule?
Answer: 0

Question: And the “Soybean plant response rating” value (soybean; [7])?
Answer: 5

Question: And the “Soybean plant response rating” value (soybean; [8])?
Answer: 0

Question: And the “Plant response rating, Corn” value (corn; [1])?
Answer: 0

Question: What about the “Corn plant response rating” value (corn; [2]) of the same molecule?
Answer: 1

Question: What about the “Corn plant response rating” value (corn; [3]) of the same molecule?
Answer: 3

Question: And the “Corn plant response rating” value (corn; [4])?
Answer: 4

Question: What about the “Corn plant response rating” value (corn; [5]) of the same molecule?
Answer: 0

Question: What about the “Corn plant response rating” value (corn; [6]) of the same molecule?
Answer: 2

Question: And the “Corn plant response rating” value (corn; [7])?
Answer: 2

Question: And the “Corn plant response rating” value (corn; [8])?
Answer: 4

Question: And the “Bedstraw plant response rating” value (bedstraw; [2])?
Answer: 7

Question: What about the “Bedstraw plant response rating” value (bedstraw; [4]) of the same molecule?
Answer: 4

Question: And the “Bedstraw plant response rating” value (bedstraw; [5])?
Answer: 0

Question: And the “Bedstraw plant response rating” value (bedstraw; [6])?
Answer: 0

Question: And the “Plant response rating, Rape” value (rape; [1])?
Answer: 3

Question: And the “Rape plant response rating” value (rape; [2])?
Answer: 3

Question: And the “Rape plant response rating” value (rape; [3])?
Answer: 7

Question: And the “Rape plant response rating” value (rape; [5])?
Answer: 0

Question: And the “Rape plant response rating” value (rape; [6])?
Answer: 0

Question: What about the “Rape plant response rating” value (rape; [7]) of the same molecule?
Answer: 7

Question: What about the “Plant response rating, Crabgrass” value (crabgrass; [1]) of the same molecule?
Answer: 2

Question: What about the “Crabgrass plant response rating” value (crabgrass; [2]) of the same molecule?
Answer: 9

Question: And the “Crabgrass plant response rating” value (crabgrass; [3])?
Answer: 9

Question: And the “Crabgrass plant response rating” value (crabgrass; [4])?
Answer: 10

Question: And the “Crabgrass plant response rating” value (crabgrass; [5])?
Answer: 10

Question: What about the “Crabgrass plant response rating” value (crabgrass; [6]) of the same molecule?
Answer: 10

Question: What about the “Crabgrass plant response rating” value (crabgrass; [8]) of the same molecule?
Answer: 10

Question: And the “Plant response rating, Sugarbeets” value (sugar beet; [1])?
Answer: 0

Question: And the “Sugarbeets plant response rating” value (sugar beet; [3])?
Answer: 2

Question: What about the “Sugarbeets plant response rating” value (sugar beet; [5]) of the same molecule?
Answer: 0

Question: And the “Sugarbeets plant response rating” value (sugar beet; [6])?
Answer: 3

Question: What about the “Sugarbeets plant response rating” value (sugar beet; [7]) of the same molecule?
Answer: 2
